Test results: patent US20230404972A1, “INHIBITION OF CASPASE PATHWAY AS A TREATMENT FOR LYSOSOMAL STORAGE DISORDERS” (Lysosomal and Rare Disorders Research and Treatment Center, …, priority 2020, published 2023)

Key:
[1] = biological target: T1, Caspase 1 (Homo sapiens, UniProt P29466); assay: Caspase-Glo 1 inflammasome assay in PBMCs from LSD patients; format: cell-based; conditions: 1 μM, 6 hr, vs untreated PBMCs
T1 construct: Caspase 1 activity within the PBMCs; endogenous in cells; host or cells: primary PBMCs from LSD patients
T1 sequence (P29466 120-297 limits assumed): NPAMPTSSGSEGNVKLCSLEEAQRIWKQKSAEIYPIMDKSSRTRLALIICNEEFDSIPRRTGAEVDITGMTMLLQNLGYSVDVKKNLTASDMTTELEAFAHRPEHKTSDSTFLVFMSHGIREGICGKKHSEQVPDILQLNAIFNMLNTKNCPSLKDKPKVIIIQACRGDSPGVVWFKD
T1 sequence (P29466 317-404 limits assumed): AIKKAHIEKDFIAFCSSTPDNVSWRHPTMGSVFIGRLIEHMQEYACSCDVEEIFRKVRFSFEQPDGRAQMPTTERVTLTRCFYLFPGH
Description: PBMCs are extracted from 3-5 ml peripheral blood using Ficoll-Paque (GE health care). 2-4 ml of whole blood is diluted 1:2 using Phosphate buffered saline (PBS) containing 2% fetal bovine serum (FBS) and overlayed onto Ficoll solution in 15 ml leucosep tube. The tubes are centrifuged at 2000 g for 10 minutes with no brakes. The layer containing PBMCs is transferred into a fresh 15 ml tube and washed with PBS+2% FBS. The cells are then resuspended in RPMI+10% FBS. The cells were then counted using heniocytometer and plated into 96 well plates and set at 37° C. incubator with 5% CO2.
The pan-caspase inhibitor, Emricasan (Sigma-Aldrich, Inc., St. Louis, MO, USA), was added to the PBMCs in 96-well plates to a final concentration of 1 μM. After 6 hr of Emricasan treatment, the cells were divided into two groups and used for 1) measurement of Caspase 1 activity within the PBMCs using Caspase-Glo 1 inflammasome assay (Promega, Madison, WI, USA), and 2) the supernatant was collected after centrifuging at 3000 rpm for 5 min to perform ELISA assays for cytokines: IL-1 beta and IL-18 as well as macrophage activation markers: Chitotriosidase and CCL18. […]
(§1) Caspase-1 mediated inflammasome cleaves pro-IL-1 beta and pro-IL-18 into active forms II-1 beta and IL-18 which are secreted from the cells. […] Relative decrease for each sample was calculated as relative to untreated PBMCs (FIG. 3A and 3B). […]

[2] = test system: IL-18; assay: IL-18 ELISA of PBMC cell culture supernatant; format: cell-based, human; conditions: PBMCs from LSD patients, 1 uM, 6 hr, relative to untreated PBMCs
Description: (§2) PBMCs are extracted from 3-5 ml peripheral blood using Ficoll-Paque (GE health care). 2-4 ml of whole blood is diluted 1:2 using Phosphate buffered saline (PBS) containing 2% fetal bovine serum (FBS) and overlayed onto Ficoll solution in 15 ml leucosep tube. The tubes are centrifuged at 2000 g for 10 minutes with no brakes. The layer containing PBMCs is transferred into a fresh 15 ml tube and washed with PBS+2% FBS. The cells are then resuspended in RPMI+10% FBS. The cells were then counted using heniocytometer and plated into 96 well plates and set at 37° C. incubator with 5% CO2. […]
(§3) Caspase-1, IL-1 beta and IL-18 were quantified as a measure of capase-1 activity. CCL18 and chitotriosidase were measured as to indicate macrophage activation and reflect clinical outcomes. ELISAs were performed as per manufacturer's protocols to quantify the following cytokines: 1) Caspase 1 (Therrnofisher Scientific, Waltham, MA, USA), 2) IL-1 beta, 3) IL-18 (Abcam, Cambridge, MA, USA), 4) CCL-18 cytokines-1 (Themofisher scientific, Waltham, MA, USA). […]
as §1

[3] = test system: IL-1 beta; assay: IL-1 beta ELISA of PBMC cell culture supernatant; format: cell-based, human; conditions: PBMCs from LSD patients, 1 uM, 6 hr, relative to untreated PBMCs
Description: as §2, §3, §1

[4] = test system: CCL18; assay: CCL18 ELISA of PBMC cell culture supernatant; format: cell-based, human; conditions: PBMCs from LSD patients, 1 μM, 6 hr, with vs without treatment
[5] = test system: Chitotriosidase; assay: Chitotriosidase assay (4-Methylumbelliferone chitotrioside substrate) of PBMC cell culture supernatant; format: cell-based, human; conditions: PBMCs from LSD patients, 1 μM, 6 hr, with vs without treatment

C[C@H](NC(=O)C(=O)Nc1ccccc1C(C)(C)C)C(=O)N[C@@H](CC(=O)O)C(=O)COc1c(F)c(F)cc(F)c1F [Emricasan, (3S)-3-({N-[{[2-(2-Methyl-2-propanyl)phenyl]amino}(oxo)acetyl]alanyl}amino)-4-oxo-5-(2,3,5,6-tetrafluorophenoxy) pentanoic acid]
Caspase 1 activity within the PBMCs [1]: reduced | secreted IL-18 in the cell culture supernatant [2]: significant decrease | secreted IL-1 beta in the cell culture supernatant [3]: significant decrease | production of CCL18 (macrophage activation biomarker) in cell culture medium [4]: significant decrease | production of chitotriosidase (macrophage activation biomarker) in cell culture medium [5]: significant decrease
